Where “and” joins values, the source holds several entries; their conditions need not be identical. Identical values can stand only once.
System: Salmonella typhimurium TA98
Test: Ames test, strain TA98
Type: cell-based
Conditions: positive control at 2 µg/mL
Method: The aim of the study was to assess the mutagenic potential of three extracts obtained from stem cells using two strains of Salmonella typhimurium carrying two types of mutations: TA 98-reading frame shift and TA 100-base pair substitution.
The experimental procedure was carried out basing on the manufacturer's experimental protocol (Xenometrix).

O=[N+]([O-])c1ccc2c(c1)Cc1ccccc1-2 [2-nitrofluorene (2-NF), 2-nitrofluorene]
MOI (Multiplicity of induction compared to baseline): 6.9 and 5.6
